Data reported in US12240840B2, “Amide-substituted heterocyclic compounds for the treatment of conditions related to the modulation of IL-12, IL-23 and/or IFN-alpha” (BRISTOL-MYERS SQUIBB COMPANY, priority 2018, dated 2025).

tested on: IFNα-induced pSTAT5 (pY694) in CD3 positive cells of human whole blood; experiment: IFNα-Induced STAT Phosphorylation in Human Whole Blood; format: cell-based; conditions: Homo sapiens, 1 h compound incubation, 1000 U/mL recombinant human IFNα A/D for 15 min, pSTAT5 in CD3 positive population, read-out: Human WB IFNα-Induced Stat Phosph. (IC50)
In short: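 Read-out is median fluorescence intensity of pSTAT5 (pY694) in the CD3-positive gate, by flow cytometry after fix/lyse and permeabilization. Before that, whole human blood anticoagulated with EDTA or ACD-A received compound for an hour and 1000 U/mL IFNα A/D for 15 min.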

`[2H]C([2H])([2H])NC(=O)c1nnc(NC(=O)C2CC2)cc1Nc1cccc(-c2nc([C@H](NC(=O)COC)[C@H](C)O)no2)c1OC` [Example 205] and `[2H]C([2H])([2H])NC(=O)c1nnc(NC(=O)C2CC2)cc1Nc1cccc(-c2nc([C@H](NC(=O)CC)[C@H](C)O)no2)c1OC` [Example 208] are within 1.5-fold of each other in IC50: 850 nM for the first, 1270 nM for the second.

First: [2H]C([2H])([2H])NC(=O)c1nnc(NC(=O)C2CC2)cc1Nc1cccc(-c2nc([C@H](NC(=O)OC(C)(C)C)[C@H](C)OC(C)(C)C)no2)c1OC [Example 206]
Second: [2H]C([2H])([2H])NC(=O)c1nnc(NC(=O)C2CC2)cc1Nc1cccc(-c2nc([C@@H](COC(C)(C)C)NC(=O)OC(C)(C)C)no2)c1OC [Example 219]
The IC50 of the first is higher: > 10000 nM for the first, 5240 nM for the second. The second is the more potent here.

`[2H]C([2H])([2H])NC(=O)c1nnc(NC(=O)C2CC2)cc1Nc1cccc(-c2nc(CN3CCC(O)CC3)no2)c1OC` [Example 207] and `[2H]C([2H])([2H])NC(=O)c1nnc(NC(=O)C2CC2)cc1Nc1cccc(-c2nc(CN3CCC(C)CC3)no2)c1OC` [Example 211] are within 1.5-fold of each other in IC50: 480 nM for the first, 440 nM for the second.

Going from `[2H]C([2H])([2H])NC(=O)c1nnc(NC(=O)C2CC2)cc1Nc1cccc(-c2nc(CN3CCCC3)no2)c1OC` [Example 209] to `[2H]C([2H])([2H])NC(=O)c1cnc(NC(=O)C2CC2)cc1Nc1cccc(-c2nc(CN3CCCC3)no2)c1OC` [Example 215], the IC50 falls from 1370 nM to 150 nM (9.1-fold). The second is the more potent here.

`[2H]C([2H])([2H])NC(=O)c1cnc(NC(=O)C2CC2)cc1Nc1cccc(-c2nc(CN3C[C@@H](C)O[C@@H](C)C3)no2)c1OC` [Example 210] and `[2H]C([2H])([2H])NC(=O)c1cnc(NC(=O)C2CC2)cc1Nc1cccc(-c2nc(CO)no2)c1OC` [Example 217] are within 1.5-fold of each other in IC50: 220 nM for the first, 180 nM for the second.

`[2H]C([2H])([2H])NC(=O)c1cnc(NC(=O)C2CC2)cc1Nc1cccc(-c2nc(C3(N)CC3)no2)c1OC` [Example 212] and `[2H]C([2H])([2H])NC(=O)c1cnc(NC(=O)C2CC2)cc1Nc1cccc(-c2nc(C3(NC(C)=O)CC3)no2)c1OC` [Example 214] are within 1.5-fold of each other in IC50: 320 nM for the first, 390 nM for the second.

Going from `[2H]C([2H])([2H])NC(=O)c1cnc(NC(=O)C2CC2)cc1Nc1cccc(-c2nc(C3(NC(=O)OC(C)(C)C)CC3)no2)c1OC` [Example 213] to `[2H]C([2H])([2H])NC(=O)c1cnc(NC(=O)C2CC2)cc1Nc1cccc(-c2nc(C(C)(C)O)no2)c1OC` [Example 218], the IC50 falls from 4440 nM to 390 nM (11-fold). The second is the more potent here.

Going from `[2H]C([2H])([2H])NC(=O)c1cnc(NC(=O)C2CC2)cc1Nc1cccc(-c2nc(COCc3ccccc3)no2)c1OC` [Example 216] to `[2H]C([2H])([2H])NC(=O)c1cnc(NC(=O)C2CC2)cc1Nc1cccc(-c2nc(CCO)no2)c1OC` [Example 228], the IC50 falls from 320 nM to 180 nM (1.8-fold). The second is the more potent here.

`[2H]C([2H])([2H])NC(=O)c1nnc(NC(=O)C2CC2)cc1Nc1cccc(-c2nc([C@@H](CO)NC(C)=O)no2)c1OC` [Example 220] and `[2H]C([2H])([2H])NC(=O)c1nnc(NC(=O)C2CC2)cc1Nc1cccc(-c2nc([C@H](N)CO)no2)c1OC` [Example 221] are within 1.5-fold of each other in IC50: 200 nM for the first, 160 nM for the second.

First: [2H]C([2H])([2H])NC(=O)c1cnc(NC(=O)C2CC2)cc1Nc1cccc(-c2nc(C(C)N3CCN(C(C)=O)CC3)no2)c1OC (stereo not shown) [Example 222]
Second: [2H]C([2H])([2H])NC(=O)c1cnc(NC(=O)C2CC2)cc1Nc1cccc(-c2nc(C(C)N3CCN(S(C)(=O)=O)CC3)no2)c1OC (stereo not shown) [Example 223]
The IC50 of the first is 2.1-fold higher: 1480 nM for the first, 690 nM for the second.

Compared with `[2H]C([2H])([2H])NC(=O)c1nnc(NC(=O)C2CC2)cc1Nc1cccc(-c2nc(C(OCC)OCC)no2)c1OC` [Example 224], `[2H]C([2H])([2H])NC(=O)c1nnc(NC(=O)C2CC2)cc1Nc1cccc(-c2nc(CCO)no2)c1OC` [Example 225] is 2.5-fold lower in IC50: 880 nM for the first, 350 nM for the second.

First: [2H]C([2H])([2H])NC(=O)c1nnc(NC(=O)C2CC2)cc1Nc1cccc(-c2nc(CCOC(C)(C)C)no2)c1OC [Example 226]
Second: [2H]C([2H])([2H])NC(=O)c1cnc(NC(=O)C2CC2)cc1Nc1cccc(-c2nc(CCOC(C)(C)C)no2)c1OC [Example 227]
The IC50 of the first is 1.9-fold higher: 1160 nM for the first, 620 nM for the second.

First: [2H]C([2H])([2H])NC(=O)c1nnc(NC(=O)C2CC2)cc1Nc1cccc(-c2nc(CC=C)no2)c1OC [Example 229]
Second: [2H]C([2H])([2H])NC(=O)c1nnc(NC(=O)C2CC2)cc1Nc1cccc(-c2nc(CN3CC4CNCC4C3)no2)c1OC (stereo not shown) [Example 232]
The IC50 of the first is higher: > 10000 nM for the first, 6510 nM for the second. The second is the more potent here.

Compared with `[2H]C([2H])([2H])NC(=O)c1nnc(NC(=O)C2CC2)cc1Nc1cc(F)cc(-c2nc(CN3CCOCC3)no2)c1OC` [Example 230], `[2H]C([2H])([2H])NC(=O)c1nnc(NC(=O)C2CC2)cc1Nc1cccc(-c2nc(CN3CC4CN(S(C)(=O)=O)CC4C3)no2)c1OC` (stereo not shown) [Example 235] is 10-fold lower in IC50: 510 nM for the first, 50 nM for the second.

Compared with `[2H]C([2H])([2H])NC(=O)c1nnc(NC(=O)C2CC2)cc1Nc1cccc(-c2nc(CN3CC4CN(C(=O)OC(C)(C)C)CC4C3)no2)c1OC` (stereo not shown) [Example 231], `[2H]C([2H])([2H])NC(=O)c1nnc(NC(=O)C2CC2)cc1Nc1cccc(-c2nc(CN3CC4CN(C(=O)OC)CC4C3)no2)c1OC` (stereo not shown) [Example 234] is 5.8-fold lower in IC50: 1750 nM for the first, 300 nM for the second. The second is the more potent here.

Compared with `[2H]C([2H])([2H])NC(=O)c1nnc(NC(=O)C2CC2)cc1Nc1cccc(-c2nc(CN3CC4CN(C(C)=O)CC4C3)no2)c1OC` (stereo not shown) [Example 233], `[2H]C([2H])([2H])NC(=O)c1nnc(NC(=O)C2CC2)cc1Nc1cccc(-c2ncc(CNC(C)=O)s2)c1OC` [Example 261] is 6.8-fold higher in IC50: 100 nM for the first, 680 nM for the second. The first is the more potent here.

First: [2H]C([2H])([2H])NC(=O)c1nnc(NC(=O)C2CC2)cc1Nc1cccc(-c2nc(/C=C/c3ccccc3)no2)c1OC [Example 236]
Second: [2H]C([2H])([2H])NC(=O)c1nnc(NC(=O)C2CC2)cc1Nc1cccc(-c2ncc(CO)s2)c1OC [Example 257]
The IC50 of the first is higher: > 10000 nM for the first, 230 nM for the second.

`[2H]C([2H])([2H])NC(=O)c1nnc(Nc2ccc(C)nn2)cc1Nc1cccc(-c2nc(CN3CCOCC3)no2)c1OC` [Example 237] and `[2H]C([2H])([2H])NC(=O)c1nnc(Nc2ccc(OC)nn2)cc1Nc1cccc(-c2nc(CN3CCOCC3)no2)c1OC` [Example 238] are within 1.5-fold of each other in IC50: 70 nM for the first, 80 nM for the second.

Going from `[2H]C([2H])([2H])NC(=O)c1nnc(NC(=O)C2CC2)cc1Nc1cccc(-c2cnc(C(=O)N(C)C)s2)c1OC` [Example 239, 5-(3-((6-(cyclopropanecarboxamido)-3-((methyl-d3)carbamoyl)pyridazin-4-yl)amino)-2-methoxyphenyl)-N,N-dimethylthiazole-2-carboxamide] to `[2H]C([2H])([2H])NC(=O)c1nnc(NC(=O)C2CC2)cc1Nc1cccc(-c2ncc(CC(=O)N(C)C)s2)c1OC` [Example 256], the IC50 rises from 50 nM to 130 nM (2.6-fold).

Going from `[2H]C([2H])([2H])NC(=O)c1nnc(NC(=O)C2CC2)cc1Nc1cccc(-c2ncc(C(=O)NCCNC(=O)CC)s2)c1OC` [Example 240] to `[2H]C([2H])([2H])NC(=O)c1nnc(NC(=O)C2CC2)cc1Nc1cccc(-c2ncc(CNC(=O)CC)s2)c1OC` [Example 262], the IC50 rises from 180 nM to 2690 nM (15-fold).

Compared with `[2H]C([2H])([2H])NC(=O)c1nnc(NC(=O)C2CC2)cc1Nc1cccc(-c2ncc(C(=O)N3CCN(S(=O)(=O)C=C)CC3)s2)c1OC` [Example 241], `[2H]C([2H])([2H])NC(=O)c1nnc(NC(=O)C2CC2)cc1Nc1cccc(-c2ncc(C(=O)N3CCN(S(=O)(=O)CC)CC3)s2)c1OC` [Example 242] is 30-fold lower in IC50: 620 nM for the first, 21 nM for the second. The second is the more potent here.

Going from `COc1c(Nc2cc(NC(=O)C3CC3)nnc2C(N)=O)cccc1-c1ncc(CC(=O)N(C)C)s1` [Example 243] to `COc1c(Nc2cc(NC(=O)C3CC3)nnc2C(N)=O)cccc1-c1ncc(C(=O)N(C)C)s1` [Example 246], the IC50 falls from 90 nM to 30 nM (3-fold). The second is the more potent here.

Compared with `COc1c(Nc2cc(NC(=O)C3CC3)nnc2C(N)=O)cccc1-c1ncc(CC(=O)N2CCOCC2)s1` [Example 244], `[2H]C([2H])([2H])NC(=O)c1nnc(NC(=O)C2CC2)cc1Nc1cccc(-c2ncc(CC(=O)N3CCOCC3)s2)c1OC` [Example 253] is 2.5-fold higher in IC50: 120 nM for the first, 300 nM for the second. The first is the more potent here.

`COc1c(Nc2cc(NC(=O)C3CC3)nnc2C(N)=O)cccc1-c1ncc(C(=O)N2CCOCC2)s1` [Example 245] and `COc1c(Nc2cc(NC(=O)C3CC3)nnc2C(N)=O)cccc1-c1ncc(C(=O)NCCC2CCCN2C)s1` (stereo not shown) [Example 247] are within 1.5-fold of each other in IC50: 110 nM for the first, 100 nM for the second.

Going from `[2H]C([2H])([2H])NC(=O)c1nnc(NC(=O)C2CC2)cc1Nc1cccc(-c2ncc(CC(=O)NCC(O)CO)s2)c1OC` (stereo not shown) [Example 248] to `[2H]C([2H])([2H])NC(=O)c1nnc(NC(=O)C2CC2)cc1Nc1cccc(-c2ncc(CC(=O)NCCOC)s2)c1OC` [Example 255], the IC50 falls from 2240 nM to 620 nM (3.6-fold). The second is the more potent here.

`[2H]C([2H])([2H])NC(=O)c1nnc(NC(=O)C2CC2)cc1Nc1cccc(-c2ncc(CC(=O)N3CCS(=O)(=O)CC3)s2)c1OC` [Example 250] and `[2H]C([2H])([2H])NC(=O)c1nnc(NC(=O)C2CC2)cc1Nc1cccc(-c2ncc(CN)s2)c1OC` [Example 260] are within 1.5-fold of each other in IC50: 640 nM for the first, 540 nM for the second.

First: [2H]C([2H])([2H])NC(=O)c1nnc(NC(=O)C2CC2)cc1Nc1cccc(-c2ncc(CC(=O)NCCCN(C)C)s2)c1OC [Example 252]
Second: [2H]C([2H])([2H])NC(=O)c1nnc(NC(=O)C2CC2)cc1Nc1cccc(-c2ncc(CC(=O)NCCC3CCCN3C)s2)c1OC (stereo not shown) [Example 254]
The IC50 of the first is 1.7-fold lower: 3270 nM for the first, 5430 nM for the second.

First: [2H]C([2H])([2H])NC(=O)c1nnc(NC(=O)C2CC2)cc1Nc1cccc(-c2ncc(C(C)O)s2)c1OC (stereo not shown) [Example 258]
Second: [2H]C([2H])([2H])NC(=O)c1nnc(NC(=O)C2CC2)cc1Nc1cccc(-c2ncc(CNC(=O)COC)s2)c1OC [Example 263]
The IC50 of the first is 6.4-fold lower: 130 nM for the first, 830 nM for the second. The first is the more potent here.

First: [2H]C([2H])([2H])NC(=O)c1nnc(NC(=O)C2CC2)cc1Nc1cccc(-c2ncc(CNC(=O)OC(C)(C)C)s2)c1OC [Example 259]
Second: [2H]C([2H])([2H])NC(=O)c1nnc(NC(=O)C2CC2)cc1Nc1cccc(-c2ncc(CNC(=O)CC#N)s2)c1OC [Example 264]
The IC50 of the first is higher: > 10000 nM for the first, 1550 nM for the second.
